Results: patent US5856166A, “Streptomyces proteases and methods for improved secretion of recombinantly-expressed proteins” (Cangene Corporation, priority 1994, dated 1999)
pKi: −log10 of the molar value. Entries after “also recorded” stand apart in the source; their conditions may differ. Where a SMILES comes first, the peptide text is derived from it. The star is where a group is joined. CH2Cl = ClC*

What was measured:
[1] = target: T1, Tap (Streptomyces lividans, UniProt Q54410); assay: Inhibition of Tap by APACMK during fermentation of S. lividans (GM-CSF(-3) formation); type: cell-based, S. lividans 66; conditions: 10 uM APACMK added after 25 hours; sampled to 48 hours
T1 construct: 100 ml of media was inoculated in 500 ml baffle-bottom flasks with 100 ul of S. lividans 66 working seed bank material; endogenous in cells; host or cells: Streptomyces lividans 66
T1 sequence (Q54410 40-537): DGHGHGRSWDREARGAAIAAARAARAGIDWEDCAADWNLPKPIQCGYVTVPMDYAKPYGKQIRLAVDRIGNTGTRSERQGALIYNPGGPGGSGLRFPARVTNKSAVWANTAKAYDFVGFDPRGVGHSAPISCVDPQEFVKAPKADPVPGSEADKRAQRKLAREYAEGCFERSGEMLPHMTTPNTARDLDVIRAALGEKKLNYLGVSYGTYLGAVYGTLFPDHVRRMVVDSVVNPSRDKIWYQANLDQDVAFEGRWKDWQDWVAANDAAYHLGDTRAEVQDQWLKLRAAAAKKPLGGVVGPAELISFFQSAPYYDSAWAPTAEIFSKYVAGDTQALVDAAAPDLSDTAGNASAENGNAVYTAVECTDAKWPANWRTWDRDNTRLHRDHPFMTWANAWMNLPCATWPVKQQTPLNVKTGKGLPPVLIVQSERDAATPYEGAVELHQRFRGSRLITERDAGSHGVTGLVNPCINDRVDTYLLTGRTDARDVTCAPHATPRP
Procedure: When APACMK and GM-CSF were added to the protease-containing broth from S. lividans fermentations, the formation of the GM-CSF(-3) degradation product was inhibited. Lane 1=Standard containing GM-CSF and GM-CSF(-3). Lanes 2-6 show a fermentation in the presence of 10 uM APACMK. Lane 2=25 hours growth; Lane 3=27 hours growth; Lane 4=29 hours growth; Lane 5=31 hours growth; Lane 6=48 hours growth. Lanes 7-11 show a fermentation without APACMK. Lane 7=25 hours growth; Lane 8=27 hours growth; Lane 9=29 hours growth; Lane 10=31 hours growth; Lane 11=48 hours growth. GM-CSF degradation was analyzed by native gel electrophoresis.
(§1) 100 ml of media was inoculated in 500 ml baffle-bottom flasks with 100 ul of S. lividans 66 working seed bank material. The cultures were grown in a New Brunswick gyratory incubator at 32° C. and 240 rpm. The cultures were sampled at 25, 27, 29, 31, and 48 hours post-inoculation and analyzed by native gel electrophoresis (see FIG. 7). Following removal of the 25 hour sample, 100 mM APACMK in sterile water were added to yield a final concentration of 10 uM. A control flask without APACMK was retained.

[2] = target: T2, Tap (tripeptidyl aminopeptidase) (Streptomyces lividans, UniProt Q54410); assay: Inactivation of Tap by APACMK assayed with APA-pNA, determination of kinetic constants; type: biochemical, S. lividans 66
T2 construct: An autolytic tripeptide cleavage removing APA after signal peptide removal would yield the N-terminal found for the secreted protease; made in house; host or cells: Streptomyces lividans 66 (wild-type strain, native secreted enzyme purified from the broth)
T2 sequence (Q54410 40-537): T1 sequence (Q54410 40-537)
Procedure: The concentration of Tap in the inactivations was 1.0 uM. The inactivation and assay were conducted as described in Example 8. In FIG. 6, (O)=2.70 uM APACMK; (Δ)=2.16 uM APACMK; (.quadrature.)=1.73 uM APACMK; (*)=1.38 uM APACMK; (+)=No APACMK.
The methods employed are described in Examples 6, 7, and 8.
A stock solution of 10 nM Tap in 100mM Tris-HCl, pH 8.0 was prepared. Serial dilutions of 210 uM, 21 uM, 2.1 uM, 210 nM, 21 nM, and 2.1 nM APACMK (Example 5) were prepared. To the microtiter well, 25 ul of Tap followed by 25 ul of an APACMK dilution or distilled water, for an uninhibited control, were added. The assays were incubated for 20 minutes at 22° C. 50 ul 1.6 mM APA-pNA were added to each well. The absorbance was read at 405 nm then incubated at 37° C. The change in absorbance at 405 nm was read after 15 and 60 minutes of incubation.
A stock solution of 1.1 uM Tap in 50 mM Tris-HCl, pH 8.0 was prepared. APACMK stock solutions of 11 uM, 13.8 uM, 17.3 uM, 21.7 uM, 27.0 uM, 54.0 uM, 108 uM, and 1.08 mM were prepared. The Substrate Solution was 50 mM Tris-HCl, pH 8.0, 0.8 mM APA-pNA. The inactivation was performed by placing 90 ul of Tap […] in a 1.5 ml Eppendorf tube on ice and adding 10 ul of water (uninhibited control) or 10 ul of APACMK. A 10 ul aliquot was removed immediately and was assayed by adding it to a cuvette containing 390 ul Substrate Solution at 22° C. The initial velocity was obtained from the change in absorbance at 405 nm during the first 10 seconds of the assay. Additional aliquots were removed at time points and assayed by the same method. At APACMK concentrations greater than 5.0 uM in the incubation, it was not possible to remove an aliquot from the incubation before 90% inactivation occurred.

[3] = target: T2, Tap (tripeptidyl aminopeptidase); assay: Cleavage of GM-CSF by Tap, native gel electrophoresis; type: biochemical, S. lividans 66
Procedure: The assay was performed as described in Example 7. The Tap concentration in the assays was 5 nM. Lane 1=GM-CSF standard; Lane 2=GM-CSF after digestion with Tap in the absence of APACMK; Lanes 3 and 4=150 uM APACMK; Lanes 5 and 6=15 uM APACMK; Lanes 7 and 8=1.5 uM APACMK; Lanes 9 and 10=150 nM APACMK; Lanes 11 and 12=15 nM APACMK; Lanes 13 and 14=1.5 nM APACMK; Lanes 15 and 16=150 pM APACMK.
To 10 ul of rhGM-CSF (10 ug, Cangene) and 20 ul 20 mM Tris-HCl, pH 8.0, 20 ul of Tap were added. The assays were incubated at 37° C. for 2 hrs. 20 ul of 125 mM Tris-HCl, pH 6.8, 0.1% bromophenol blue in 50% aqueous glycerol were added. Products were separated by native gel electrophoresis at constant current on a 17% polyacrylamide gel by a modification of the method of Davies (Davies, 1964) in which the pH of all buffers was modified with H2 SO4. Products were visualized by staining with Coomassie Blue G-250 (see FIG. 1A).
A stock solution of 10 nM Tap in 20 mM Tris-HCl, pH 8.0 was prepared. Serial dilutions of 210 uM, 21 uM, 2.1 uM, 210 nM, 21 nM, and 2.1 nM APACMK (Example 5) were prepared. To 20 ul Tap, 20 ul of an APACMK dilution (or water for an uninhibited enzyme control) were added and incubated at 22° C. for 30 minutes. 10 ul of GM-CSF (1 ug/ul, Cangene) were added and incubated at 37° C. for 2 hours. Products were analyzed by native gel electrophoresis as described in Example 2.

[4] = test system: S. lividans 66; assay: Cell growth of S. lividans fermentation in the presence of APACMK; type: cell-based; conditions: 10 uM APACMK
Procedure: as §1

[5] = target: T2, Tap (tripeptidyl aminopeptidase); assay: Cleavage of IL-3 by Tap after PMSF treatment, isoelectric focusing; type: biochemical, S. lividans 66; conditions: Tap preincubated with PMSF 30 minutes at 22° C.; incubation up to 4 hours at 37° C.
Procedure: Lanes 1-4 show the incubation of IL-3 with TAP-S that has been treated with PMSF. Lane 1=4 hrs; Lane 2=2 hours; Lane 3=1 hr.; Lane 4=0 hours. Lanes 5-8 show the incubation of IL-3 with uninhibited Tap. Lane 5=4 hrs.; Lane 6=2 hrs.; Lane 7=1 hrs.; Lane 8=0 hrs. Lane 9 is a human carbonic anhydrase marker, pI=7.4. Lane 10 contains pI markers. […] The enzyme is not affected by sulfhydryl reagents, chelators or aspartyl protease inhibitors (Table I).
To 50 ul 20 mM Tris-HCl, pH 8.0, 40 ul rhIL-3 (2.5 ug/ul, Cangene) was added followed by 10 ul Tap. The assays were incubated at 37° C.. 25 ul aliquots were withdrawn at the desired time points and frozen on crushed dry ice. The products were separated by isoelectric focusing from pH 3-10 using Pharmalyte 3-10 (Pharmacia) ampholytes (FIG. 4). Products were visualized by staining with Coomassie Blue G-250.
Tap stock (Example 1) was diluted 100-fold with 20 mM Tris-HCl, pH 8.0. A fresh solution of 80 mM PMSF was prepared in isopropanol (iPrOH). A Stock Buffer of 20 mM Tris-HCl, pH 8.0 was prepared. Four preincubations were prepared as follows.
These were incubated at 22° C. for 30 minutes. When the preincubation was complete, 40 ul rhIL-3 (2.5 ug/ul, Cangene) were added and incubation was initiated at 37° C.. […] When the sampling process was complete, the products were analyzed by isoelectric focusing from pH 3-10 (Example 2).

[6] = target: T2, Tap (tripeptidyl aminopeptidase); assay: Inhibition of TAP in the APA-pNA assay (protease inhibitor survey, Table I); type: biochemical, S. lividans 66
Procedure: The protease and inhibitor were preincubated for 15 minutes at 22° C. Substrate was added and the mixture was incubated at 37° C. Activity was measured by monitoring the change in absorbance at λ=405 nm.
The assay was conducted in a 96 well microtiter plate. To each well in the assay, 50 ul 100 mM Tris-HCl, pH 8.0, were added followed by 25 ul 3.2 mM APA-pNA. 25 ul of Tap were added to the wells and the absorbance was read at 405 nm. The assays were incubated at 37° C. for 2 hours. The absorbance was read at 405 nm. The activity (release of p-nitroaniline) was calculated from the change in absorbance.

[7] = inactivation of Tap, APA-pNA as substrate

C[C@H](N)C(=O)N1CCC[C@H]1C(=O)N[C@@H](C)C(=O)CCl [APACMK, L-alanyl-L-prolyl-L-alanine chloromethylketone] (H-Ala-Pro-Ala-CH2Cl)
formation of GM-CSF(-3) degradation product in S. lividans fermentation [1]: prevented cleavage of GM-CSF; also recorded: inhibited; also recorded: significantly reduced formation of GM-CSF(-3) | effect on release of p-nitroaniline from APA-pNA by Tap [2]: stopped the release of p-nitroaniline; also recorded: inactivated Tap at very low concentrations | inhibition at 2.7 µM ([2]; 0.1 h, within 6 minutes at 0° C., inhibitor concentration 2.7 uM, inhibitor/enzyme molar ratio 2.7): > 99% | pKi [2, 7]: 5.48 | kinact [2, 7]: 0.00233 s⁻¹ | effect on cleavage of GM-CSF by Tap [3]: stopped the cleavage of GM-CSF; also recorded: inactivated Tap at very low concentrations | cell growth during fermentation [4]: did not significantly retard the rate of cell growth; also recorded: did not inhibit cell growth

O=S(=O)(F)Cc1ccccc1 [PMSF, phenylmethanesulfonyl fluoride]
effect on cleavage of IL-3 by Tap [5]: inhibited; also recorded: intact IL-3 is clearly detected after 4 hours | effect on cleavage of GM-CSF by Tap [3]: inhibited | effect on cleavage of APA-pNA by Tap ([6]; Tap treated with PMSF): inhibited | Residual Activity ([6]; inhibitor 1.6 mM, preincubated 15 minutes at 22° C., substrate APA-pNA, enzyme only = 100): 7
